Laboratory results reported in article PMC8049364, “Quantification of Macrophage-Driven Inflammation During Myocardial Infarction with ^18F-LW223, a Novel TSPO Radiotracer with Binding Independent of the rs6971 Human Polymorphism” (Journal of Nuclear Medicine, 2021).

Tests used:
[1] = Radiometabolite analysis of blood and tissue in naïve rats; type: in vivo, rat; details: for Parent fraction: population curve
Method: Arterial blood samples were collected at 2, 5, 10, 20, 30, 60, and 120 min after radiotracer injection (69.7 ± 9.1 MBq [mean ± SEM], n = 17 rats), and heart, lung, and brain tissue samples were collected at 60 and 120 min. Blood and tissues were processed as detailed in the supplemental materials.
(§1) Invasive Input Function Measurement
Polyethylene catheters (PE50) filled with heparinized saline (20 IU/mL) were inserted into the left femoral artery and vein with the help of a stereomicroscope and securely fastened with ligatures (6-0 silk thread). […]
(§2) Radiometabolite Blood and Tissue Processing and Analysis
(§3) All blood samples were 1 mL each and manually collected from different animals to generate a population curve, in order to respect total blood volume limits for terminal arterial blood collections in rats. Following blood and tissue collection, all samples were […]
kept on ice until analyzed. Radioactivity in whole blood and plasma, as well as homogenized tissue samples, was assessed using a well-type γ-counter using a 400– 1400 keV window (Perkin Elmer Wizzard2, USA). Plasma samples (400 μl) and tissue samples (500 μl) were processed by acetonitrile denaturation (1:1.4 v/v) and analyzed by HPLC (Ultimate2000, ThermoFisher, UK) on a Luna C18(2) 10×250 mm, 10 μm column (Phenomenex, UK) with acetonitrile/water 70/30 and flow rate of 4 mL/min to estimate the […]
parent fraction. […]

[2] = target: T1, TSPO (Rattus norvegicus, UniProt P16257); assay: PET/CT imaging and kinetic modelling in rat MI model, day 7; type: in vivo; parameters: k4 (2T analysis), mean / K1 (2T analysis), mean / k2 (2T analysis), mean / k3 (2T analysis), mean: unit not given here; details: for K1 (2T analysis), mean / VT (2T analysis), mean / k2 (2T analysis), mean / k3 (2T analysis), mean / k3/k4 (2T analysis), mean / k4 (2T analysis), mean: MI n = 9
T1 construct: Thirty-three adult male Sprague–Dawley rats; from tissue; host or cells: living adult male Sprague-Dawley rats; heart, LV anterior wall, lung and brain VOIs
Method: For MI studies, anesthesia was induced and maintained using isoflurane (0.5%–3% in oxygen, 1 L/min) before buprenorphine (0.05 mg/kg; Alstoe Ltd.) was administered preoperatively for analgesia. Tracheal intubation was achieved under direct vision, and ventilation was maintained with a rodent ventilator (model 683 [Harvard Apparatus]; tidal volume, 2.5 cm^3; respiratory rate, 60/min). MI was induced as we have previously described ([18]), and further details can be found in the supplemental materials. Animals were imaged within 1 d of day 7 after MI, referred to as day 7 throughout the article.
Thirty-two PET scans were performed with ^18F-LW223 (17.8 ± 1.5 MBq, intravenous bolus, mean ± SEM). Naïve and MI rat scans were acquired immediately after intravenous bolus injection of ^18F-LW223. […] Dosimetry studies were conducted using mice and 240-min PET scans.
Reconstructed scans were imported into PMOD, version 3.8 (PMOD Technologies). Volumes of interest (VOIs) were manually drawn around the brain, heart, and lung using CT images. To sample the infarct area (or an equivalent area in naïve hearts), averaged PET images (0–120 min) were used to place 3 spheric VOIs at the center of the infarct territory within the ventricular wall (1.5 mm^3). […] Time–activity curves were generated, and SUVs were calculated as concentration in the VOI divided by injected dose divided by animal weight. Kinetic modeling was performed using the 2-tissue-compartment model to estimate the kinetic rate constants K1–k4 and the total volume of distribution (VT) in different tissues. Blood volume fraction (VB) was not modeled in this study. Two-tissue-compartment modeling was selected as the preferred model on the basis of a comparison of goodness and robustness of fitting versus several other models (Supplemental Fig. 3; Supplemental Table 2). The binding potential relative to nondisplaceable volume (BPND) was defined as k3/k4 ([19]). The transfer-corrected BPND, termed BPTC, was formulated as follows:Eq. 1 BPTC=k3/k4÷K1, […]
where k3 is the radiotracer association rate with specific binding, k4 is the dissociation rate constant of target ligand, and K1 is the rate constant for transfer from arterial plasma to tissues. When tissue blood flow is impaired, such as after MI, K1→blood flow, as per the Renkin–Crone equation:Eq. 2 K1=F×E=F (1−e^− PS/F), […]
as §1
Polyethylene catheters (PE50) filled with heparinized saline (20 IU/mL) were inserted into the left femoral artery and vein with the help of a stereomicroscope and securely fastened with ligatures (6-0 silk thread). Catheters were held in place with […]
Rat Myocardial Infarction Procedure
Briefly, the skin was incised at the level of the left third and fourth ribs where the pectoral muscles were divided and retracted. Left lateral thoracotomy was then performed. With minimal handling, the pericardium was ruptured and the heart gently exteriorized from the thorax, and a nonabsorbable 5-0 ligature was placed around the left anterior descending coronary artery just above the bifurcation of the first diagonal and maneuvered back into position. Before wound closure, a drain was inserted to assist with removal of air and fluid from the thorax. Once removed, the wound was then closed in three layers. Animals were recovered and extubated once spontaneous ventilation was established, housed at 30 °C for 24 hours and given sterile sodium chloride 0.9% 0.01 mL/g fluid therapy subcutaneously in addition to another dose of Buprenorphine. After 24 hours, normal housing conditions were resumed.
as §2, §3

CC[C@@H](C)N(C)C(=O)c1nc2ccccc2c(-c2ccccc2)c1C[18F] [^18F-LW223]
Parent fraction ([1]; 2 min): 0.95
Parent fraction ([1]; 5 min): 0.82
Parent fraction ([1]; 10 min): 0.81
Parent fraction ([1]; 20 min): 0.81
Parent fraction ([1]; 30 min): 0.77
Parent fraction ([1]; 120 min): 0.69
radiometabolites in brain, heart, and lung ([1]; rat, 60 and 120 min after administration): less than 12.7%
plasma to whole blood ratio ([1]; used for input function correction): 1.84
K1 (2T analysis), mean ([2]; Brain): 0.17
VT (2T analysis), mean ([2]; Brain): 2.21
k2 (2T analysis), mean ([2]; Brain): 0.19
k3 (2T analysis), mean ([2]; Brain): 0.023
k3/k4 (2T analysis), mean ([2]; Brain): 1.42
k4 (2T analysis), mean ([2]; Brain): 0.02
K1 (2T analysis), mean ([2]; Global Heart): 0.58
VT (2T analysis), mean ([2]; Global Heart): 12.57
k2 (2T analysis), mean ([2]; Global Heart): 0.36
k3 (2T analysis), mean ([2]; Global Heart): 0.04
k3/k4 (2T analysis), mean ([2]; Global Heart): 6.62
k4 (2T analysis), mean ([2]; Global Heart): 0.01
K1 (2T analysis), mean ([2]; LV Anterior Wall): 0.25
VT (2T analysis), mean ([2]; LV Anterior Wall): 13.62
k2 (2T analysis), mean ([2]; LV Anterior Wall): 0.18
k3 (2T analysis), mean ([2]; LV Anterior Wall): 0.025
k3/k4 (2T analysis), mean ([2]; LV Anterior Wall): 7.92
k4 (2T analysis), mean ([2]; LV Anterior Wall): 0.01
K1 (2T analysis), mean ([2]; Lung): 1.08
VT (2T analysis), mean ([2]; Lung): 10.43
k2 (2T analysis), mean ([2]; Lung): 0.39
k3 (2T analysis), mean ([2]; Lung): 0.046
k3/k4 (2T analysis), mean ([2]; Lung): 2.49
k4 (2T analysis), mean ([2]; Lung): 0.02
BPTC ([2]; MI cohort, infarct territory of anterior wall, 7 d after MI): 32.7 ± 5.0 cm^3/mL/min
reduction of K1 in LV anterior wall, MI vs naïve ([2]; rat, in vivo): 3.6 fold
reduction of k2 in LV anterior wall, MI vs naïve ([2]; rat, in vivo): 1.4 fold
